In patent US8017584B2, “GD3-mimetic peptides” (Otsuka Pharmaceutical Co., Ltd., priority 2000, dated 2011):
Blank lines part the entries; values can stand above or below the substance they belong to.

Key:
[1] = system: T-cell-rich lymphocytes / IL-2-dependent CTLL2 cells; assay: Cell response test: IL-2 activity (3H thymidine up-take of CTLL2 cells) in supernatant of spleen cells of mice immunized with R4 peptide (R4-KLH); type: cell-based, mouse; conditions: mice immunized with R4 peptide
Description: Using a fusion peptide R4-KLH obtained in Example 3 (4) between GD3R4 and KLH or a MAP form fusion peptide R4MAP-KLH created between GD3R4 and KLH, immunization was performed as described in (1) above.
Briefly, an emulsion mixed with an adjuvant (1:1, by volume) was administered to each member of groups of mice, each group consisting of 3 mice (CD-1), in an amount of 100 μL/mouse (for one administration (ip), peptide 30 μg/mouse) for immunization. In the case of R4-KLH, administration was performed every one week for one month, and subsequently every two weeks for one month; and in the case of R4MAP-KLH, every one week for 2 months. In any case, 4 days after the final immunization, blood was collected to thereby prepare antiserum samples.
(§1) The spleen aseptically removed from each of the above-immunized mice was minced in a 10% FCS-supplemented RPMI 1640 medium. By use of a nylon wool column, T-cell-rich lymphocytes were prepared and the cells were counted. The above medium containing the cells in an amount of 10^5 cells per 150 μL was added to each of the wells of a culture plate. PHA was added so as to attain a final concentration of 1 μg/mL. A peptide of the present invention or any of different gangliosides in PBS was added, and the mixture was incubated for 96 hours. A supernatant (100 μL) was obtained from each well. The IL-2 activity of the supernatant was determined through use of IL-2-dependent mouse cells, CTLL2. Briefly, the supernatant (100 μL) diluted 2 to 50-fold with a medium was added to the wells in an amount of 10^4 CTLL2 cells/well, followed by incubation at 37° C. for 48 hours. Subsequently, 3H-thymidine (0.5 μCi) was added to each well, followed by incubation for 6 hours. CTLL2 cells were recovered on a paper filter and counted for 3H.

[2] = system: anti-GD3 antibody 4F6; assay: ELISA of MAPs immobilized at various amounts with 4F6 (Example 5(2), FIG. 3); type: binding, mouse; conditions: MAPs or GD3 immobilized at various amounts
Description: (1) In a manner similar to that described in Example 3, peptides of N-terminus 9 amino acid residues or C-terminus 9 amino acid residues of GD3R1, GD3R2, GD3R3, or GD3R4. The nomenclature and sequences of respective peptides employed in the present test are shown in FIG. 2 These were employed as multi-antigen peptides (MAPs). (2) In order to extend the research on bonding between the anti-GD3 antibody 4F6 and each of the GD3-mimetic peptides shown in FIG. 1, multi-antigen peptides (MAPs) were subjected to ELISA. MAP samples having a variety of concentrations shown on the X-axis in FIG. 3 were provided, and each sample was immobilized onto the wells of a 96-well plate. Subsequently, the wells were blocked with a blocking solution (TBS supplemented with 1% BSA, 0.1% skim milk, and 0.02% Tween 20) at 4° C. overnight. 4F6 (hybridoma supernatant: used in the neat form) was added (100 μL/well) for reaction at room temperature for 2 hours. After completion of reaction, the supernatant was discarded, and the wells were washed with a washing solution (TBS supplemented with 1% FBS and 0.05% Tween 20) six times. Subsequently, the wells were allowed to react with peroxidase-labeled anti-mouse IgG (diluted 1,000-fold with a blocking solution) at room temperature for 2 hours. The wells were again washed with a washing solution four times, and the amount of peroxidase enzyme remaining in each well was detected and quantitatively determined with the substrate TMB, whereby binding of MAP to 4F6 was investigated. The test was performed in triplicate, and the values in the graph are “mean ±SD.”

[3] = system: T-cell-rich lymphocytes / IL-2-dependent CTLL2 cells; assay: Cell response test: IL-2 activity (3H thymidine up-take of CTLL2 cells) in supernatant of spleen cells of mice immunized with GD3; type: cell-based, mouse; conditions: mice immunized with GD3
Description: Similar to the case of immunization with R4-KLH, antiserum samples were also prepared through immunization with GD3 (30 μg).
as §1

[4] = system: binding between GD3 and 4F6; assay: Inhibition by exogenously added MAPs of binding between GD3 and 4F6 (Example 5(4), FIG. 5); design: species or system mouse
Description: (4) Next, investigation was made as to whether binding between GD3R3 or GD3R4 and 4F6 occurred at the GD3 binding site of 4F6. To the wells of a plate to which GD3 had been immobilized (100 ng/well), each of the MAP samples having a variety of concentrations shown on the X-axis in FIG. 5 and 4F6 (100 μL/well) were simultaneously added, whereby an inhibitory test was performed. The test was performed in triplicate, and the values in the graph are “mean ±SD.”

[5] = system: binding between GD3 and 4F6 (anti-GD3 antibody); assay: Inhibition by immobilized MAPs of binding between GD3 and 4F6 (Example 5(3), FIG. 4); design: species or system mouse; conditions: immobilized MAP or GD3 absorbs 4F6
Description: (3) The binding affinity shown in FIG. 3 was investigated in another method. Briefly, MAP samples having a variety of concentrations shown on the X-axis in FIG. 4 were provided. Each sample was immobilized onto the wells of a 96-well plate, and the wells were allowed to react with 4F6 (100 μL/well) at 4° C. overnight. On the following day, the supernatant (80 μL) was collected and added to the wells of another plate to which GD3 had been immobilized in advance (100 ng/well) for reaction at room temperature for 2 hours. After completion of reaction, the amount of antibody 4F6 that had been condensed with GD3 (i.e., that had not been absorbed by MAP) was detected and quantitatively determined through the method described (2) above, whereby inhibitory effect of MAP on binding of GD3 to 4F6 was investigated. The test was performed in triplicate, and the values in the graph are “mean ±SD.”

[6] = system: binding between GD3 and 4F6; assay: Inhibition by nine-residue MAPs of binding between GD3 and 4F6 (Example 5(5), FIG. 6); design: species or system mouse; conditions: nine-residue MAP compared with the 15 residues
Description: Next, in an attempt to determine the domain required for establishing binding to anti-GD3 antibody 4F6 in GD3-mimetic peptides, an MAP of nine N-terminus residues of GD3R3 peptide and an MAP of nine C-terminus residues of the same GD3R3 peptide as shown in FIG. 2 were synthesized, their binding to 4F6 was studied by means of ELISA. ELISA was performed was performed in triplicate, and the values in the graphs are “mean ±SD.”

[7] = PHA 1 μg/mL + stimulant 0.5 μg/ml, supernatant dilution ½
[8] = stimulant 0.5 μg/ml, supernatant dilution 1/20
[9] = stimulant 0.5 μg/ml, supernatant dilution 1/50
[10] = stimulant 0.5 μg/ml, supernatant dilution ⅕
[11] = stimulant 1 μg/ml, supernatant dilution 1/20
[12] = stimulant 1 μg/ml, supernatant dilution 1/50
[13] = stimulant 1 μg/ml, supernatant dilution ½
[14] = stimulant 1 μg/ml, supernatant dilution ⅕
[15] = stimulant 2 μg/ml, supernatant dilution 1/20
[16] = stimulant 2 μg/ml, supernatant dilution 1/50
[17] = stimulant 2 μg/ml, supernatant dilution ½
[18] = stimulant 2 μg/ml, supernatant dilution ⅕
[19] = stimulant 5 μg/ml, supernatant dilution 1/20
[20] = stimulant 5 μg/ml, supernatant dilution 1/50
[21] = stimulant 5 μg/ml, supernatant dilution ½
[22] = stimulant 5 μg/ml, supernatant dilution ⅕

inhibitory effect of exogenously added sample on binding between GD3 and 4F6 (words, FIG. 5) ([4]; added simultaneously with 4F6 to GD3 100 ng/well): exhibited inhibitory effect
order of binding strength to 4F6 ([4]; deduced from FIG. 5): GD3>GD3R3>GD3R4
inhibition of GD3 binding to 4F6 by immobilized sample (words, FIG. 4) [5]: inhibit GD3 from binding to the antibody
Substance: NeuAc α2-8 NeuAc α2-3 Gal β1-4 Glc β1-1 Cer [GD3, reference compound]
3H Thymidine up-take into CTLL2 cells, mean ± SE (4 wells) [1, 7]: 2635 ± 308
3H Thymidine up-take into CTLL2 cells, mean ± SE (4 wells) [1, 8]: 850 ± 87
3H Thymidine up-take into CTLL2 cells, mean ± SE (4 wells) [1, 9]: 169 ± 25
3H Thymidine up-take into CTLL2 cells, mean ± SE (4 wells) [1, 10]: 1792 ± 154
3H Thymidine up-take into CTLL2 cells, mean ± SE (4 wells) [1, 11]: 794 ± 82
3H Thymidine up-take into CTLL2 cells, mean ± SE (4 wells) [1, 12]: 202 ± 24
3H Thymidine up-take into CTLL2 cells, mean ± SE (4 wells) [1, 13]: 2721 ± 284
3H Thymidine up-take into CTLL2 cells, mean ± SE (4 wells) [1, 14]: 1658 ± 134
3H Thymidine up-take into CTLL2 cells, mean ± SE (4 wells) [1, 15]: 809 ± 74
3H Thymidine up-take into CTLL2 cells, mean ± SE (4 wells) [1, 16]: 212 ± 28
3H Thymidine up-take into CTLL2 cells, mean ± SE (4 wells) [1, 17]: 2797 ± 295
3H Thymidine up-take into CTLL2 cells, mean ± SE (4 wells) [1, 18]: 1722 ± 163
3H Thymidine up-take into CTLL2 cells, mean ± SE (4 wells) [1, 19]: 764 ± 68
3H Thymidine up-take into CTLL2 cells, mean ± SE (4 wells) [1, 20]: 184 ± 23
3H Thymidine up-take into CTLL2 cells, mean ± SE (4 wells) [1, 21]: 2619 ± 316
3H Thymidine up-take into CTLL2 cells, mean ± SE (4 wells) [1, 22]: 1636 ± 145
binding of 4F6 to immobilized sample (words, FIG. 3) [2]: declined from the concentration 0.8 μg/well and higher
3H Thymidine up-take into CTLL2 cells, mean ± SE (4 wells) [3, 7]: 2795 ± 175
3H Thymidine up-take into CTLL2 cells, mean ± SE (4 wells) [3, 8]: 810 ± 72
3H Thymidine up-take into CTLL2 cells, mean ± SE (4 wells) [3, 9]: 207 ± 22
3H Thymidine up-take into CTLL2 cells, mean ± SE (4 wells) [3, 10]: 1876 ± 152
3H Thymidine up-take into CTLL2 cells, mean ± SE (4 wells) [3, 11]: 762 ± 55
3H Thymidine up-take into CTLL2 cells, mean ± SE (4 wells) [3, 12]: 186 ± 27
3H Thymidine up-take into CTLL2 cells, mean ± SE (4 wells) [3, 13]: 2568 ± 235
3H Thymidine up-take into CTLL2 cells, mean ± SE (4 wells) [3, 14]: 1834 ± 169
3H Thymidine up-take into CTLL2 cells, mean ± SE (4 wells) [3, 15]: 758 ± 61
3H Thymidine up-take into CTLL2 cells, mean ± SE (4 wells) [3, 16]: 197 ± 28
3H Thymidine up-take into CTLL2 cells, mean ± SE (4 wells) [3, 17]: 2453 ± 264
3H Thymidine up-take into CTLL2 cells, mean ± SE (4 wells) [3, 18]: 1901 ± 188
3H Thymidine up-take into CTLL2 cells, mean ± SE (4 wells) [3, 19]: 794 ± 68
3H Thymidine up-take into CTLL2 cells, mean ± SE (4 wells) [3, 20]: 179 ± 23
3H Thymidine up-take into CTLL2 cells, mean ± SE (4 wells) [3, 21]: 2656 ± 257
3H Thymidine up-take into CTLL2 cells, mean ± SE (4 wells) [3, 22]: 1857 ± 185

ability to inhibit binding between GD3 and 4F6 (words, FIG. 6) [6]: comparable ability to the 15 residues
Substance: GD3R3C9: MAP of nine C-terminus residues of GD3R3 peptide (YAQRFFLLS)
